According to US20240215579A1, “USE OF ANTI-CLOTTING COMPOUNDS AS RODENTICIDES” (priority 2021, published 2024):

Tested on: pest rodents
Test: Pest rodent bait compositions in standard chow: mortality
Format: in vivo, rats
Description: The basic bait composition (standard chow) used consisted of 65% maize, 25% oat flakes, […], 3% refined finely granulated sugar, and 1% fine table salt.
The Pgp inhibitors were used at the following listed concentration.

With `C[C@@H](c1ncncc1F)[C@](O)(Cn1cncn1)c1ccc(F)cc1F` [voriconazole] the “Mortality in words, Pgp inhibitor combined with active clotting inhibitors” value (bait, combination with different active clotting inhibitors) was “high mortality” and the “Efficacy as Pgp inhibitor in the context of the invention” value (compared to other Pgp inhibiting substances) was “highly effective”.
